These results are taken from article PMC9986306, “Beyond CBD: Inhibitory effects of lesser studied phytocannabinoids on human voltage-gated sodium channels” (Frontiers in Physiology, 2023).

In test [1] the target is T1, human NaV1.2 channel (SCN2A, HEK293T cells) (Homo sapiens, UniProt Q99250).
T1 construct: expressed in transfected cells
As to the kind of experiment: Planar patch-clamp, inhibition of peak sodium current (IC50 protocol). As to conditions: mean ± SEM. Format: cell-based. As for the experimental part: (§1) HEK293T cells stably expressing SCN1A or SCN2A and CHO cells stably expressing SCN8A or SCN9A were maintained as previously described ([Richards et al., 2018]; [Milligan et al., 2022]).
(§2) Patch-clamp recordings were made using a Patchliner® (Nanion Technologies, Munich, Germany) in the whole-cell configuration as previously described ([Richards et al., 2018]; [Milligan et al., 2022]). Briefly, cells were prepared in suspension at a density of 1 × 10^6-5 × 10^7 cells/mL. The external recording solution comprised (in mM): 140 NaCl, 4 KCl, 1 MgCl2, 2 CaCl2, 5 D-glucose, 10 HEPES, pH 7.4 with NaOH, ∼295 mOsm. The internal recording solution comprised (in mM): 50 CsCl, 60 CsF, 10 NaCl, 20 EGTA, 10 HEPES, pH 7.2 with CsOH, ∼285 mOsm. Medium single-hole planar NPC-16 chips with an average resistance of ∼2.5 MΩ were used. Chip and whole-cell capacitance were fully compensated, and 50% series resistance compensation applied. Recordings were acquired at 50 kHz with the low pass filter set to 10 kHz in PATCHMASTER (HEKA Instruments, NY, United States) and performed at 27°C. Offline analysis was performed using Microsoft Excel, MatLab R2019a (MathWorks) and GraphPad Prism 8 (Molecular Devices).
(§3) To determine half-maximal inhibitory concentrations (IC50), cells were held at −80 mV, stepped to −120 mV for 200 ms followed by 50 ms test depolarization to 0 mV every 2 s for 30 s in the presence of vehicle control (DMSO). The cells were then exposed to an individual phytocannabinoid (CBD, CBGA, CBDVA, CBG, CBCA or CBC) at concentrations between 0.1 and 100 μM, sequentially for 5 min. Currents for individual cells were averaged over 24 s periods directly before application and following a 5 min exposure of compound. Leak subtraction was applied before normalization of current amplitude. Normalized mean data were fit to the Hill equation.
A general note: In patch-clamp work, channel activity is measured electrically.

Test [2] has as its target T2, human NaV1.1 channel (SCN1A, HEK293T cells) (Homo sapiens, UniProt P35498).
T2 construct: expressed in transfected cells
The description is as above. Format: cell-based. As to conditions: mean ± SEM. As for the experimental part:
as §1, §2, §3

Test [3] has as its target T3, human NaV1.7 channel (SCN9A, CHO cells) (Homo sapiens, UniProt Q15858).
T3 construct: expressed in transfected cells
The test is described as above. Format: cell-based. As to conditions: mean ± SEM. As for the experimental part:
as §1, §2, §3

Test [4] concerns the target T4, human NaV1.6 channel (SCN8A, CHO cells) (Homo sapiens, UniProt Q9UQD0).
T4 construct: expressed in transfected cells
The description is as above. Format: cell-based. As to conditions: mean ± SEM. On the procedure:
as §1, §2, §3

Test [5] deals with T2, human NaV1.1 channel (SCN1A, HEK293T cells). As to the kind of experiment: Planar patch-clamp, biophysical properties (activation, SSFI, recovery from SSFI). The settings on record: change vs vehicle DMSO at IC50 concentration (CBD 18.5 μM, CBGA 13.6 μM, CBDVA 50 μM). Format: cell-based. On the procedure:
as §1, §2
(§4) Voltage protocols were used, as previously described ([Richards et al., 2018]). Briefly, to study the voltage-dependence of activation, cells were held at −120 mV and depolarized to test potentials, in 5 mV increments, between −120 mV and +50 mV for 100 ms. To study steady-state fast inactivation, cells were held at conditioning pre-pulse potentials ranging from −120 mV to +30 mV in 5 mV increments from a holding potential of −120 mV and a test pulse at 5 mV for 20 ms. Recovery from fast inactivation was studied by pre-pulsing the cells to 0 mV from a holding potential of −120 mV for 50 ms, to fully inactivate channels. The voltage was then stepped back to the holding potential for variable interpulse intervals (ipi from 0 to 39 ms in 3 ms increments). To test channel availability, the voltage was stepped to 0 mV for 50 ms.
(§5) To examine the voltage-dependence of activation, normalized current-voltage (I-V) relationships were converted to conductance (G) using the following equation: G = I/(V−V r ) where Vr is the reversal potential for Na^+. The voltage-dependence of conductance and availability were normalized and fitted to a Boltzmann equation: G = 1/(1 + exp [(V−V 0.5)/a]), where a is the slope of the half-maximum, V is the potential of the given pulse, and V 0.5 is the potential for the half-maximal activation/inactivation. The time course of inactivation was fitted to a single exponential function I/Imax = I0+A*exp (-t-t0/τ)+C, where I0 is the non-inactivating component, Imax is the peak current, t is time, and A is the component for the time constant τ. Time constants were plotted against voltage and the data fitted with a decaying exponential equation Y = span*exp (−K*x)+plateau, where span is the starting point of the curve, K is the decay factor, plateau is the value the curve decays to, and x is time. To measure recovery from inactivation, normalized currents were plotted against ipi and data fitted with equation I/I max = 1-exp/(rc + x), where I max is maximal current; rc recovery rate constant; x is time. Peak current (I) was plotted as fractional recovery against the recovery period by normalizing to the maximum current (Imax) during the conditioning potentials.

For test [6], the target named is T3, human NaV1.7 channel (SCN9A, CHO cells). The test is described as above. Format: cell-based. As to conditions: change vs vehicle DMSO at IC50 concentration (CBD 11.9 μM, CBGA 16.4 μM, CBDVA 60 μM). As for the experimental part: as §1, §2, §4, §5
Test [7] has as its target T4, human NaV1.6 channel (SCN8A, CHO cells). The test is described as above. As to conditions: change vs vehicle DMSO at IC50 concentration (CBD 16.6 μM, CBGA 12.0 μM, CBDVA 24.1 μM). Format: cell-based. On the procedure:
as §1, §2, §4, §5

A further test concerns 6-Hz acute seizure model. More on the design: method as in Anderson et al., 2021b. As to conditions: monotherapy; ref Anderson et al., 2021b; cited from earlier work.

Marks after values point to notes of the source that are not given here.

T4 sequence (Q9UQD0 whole entry): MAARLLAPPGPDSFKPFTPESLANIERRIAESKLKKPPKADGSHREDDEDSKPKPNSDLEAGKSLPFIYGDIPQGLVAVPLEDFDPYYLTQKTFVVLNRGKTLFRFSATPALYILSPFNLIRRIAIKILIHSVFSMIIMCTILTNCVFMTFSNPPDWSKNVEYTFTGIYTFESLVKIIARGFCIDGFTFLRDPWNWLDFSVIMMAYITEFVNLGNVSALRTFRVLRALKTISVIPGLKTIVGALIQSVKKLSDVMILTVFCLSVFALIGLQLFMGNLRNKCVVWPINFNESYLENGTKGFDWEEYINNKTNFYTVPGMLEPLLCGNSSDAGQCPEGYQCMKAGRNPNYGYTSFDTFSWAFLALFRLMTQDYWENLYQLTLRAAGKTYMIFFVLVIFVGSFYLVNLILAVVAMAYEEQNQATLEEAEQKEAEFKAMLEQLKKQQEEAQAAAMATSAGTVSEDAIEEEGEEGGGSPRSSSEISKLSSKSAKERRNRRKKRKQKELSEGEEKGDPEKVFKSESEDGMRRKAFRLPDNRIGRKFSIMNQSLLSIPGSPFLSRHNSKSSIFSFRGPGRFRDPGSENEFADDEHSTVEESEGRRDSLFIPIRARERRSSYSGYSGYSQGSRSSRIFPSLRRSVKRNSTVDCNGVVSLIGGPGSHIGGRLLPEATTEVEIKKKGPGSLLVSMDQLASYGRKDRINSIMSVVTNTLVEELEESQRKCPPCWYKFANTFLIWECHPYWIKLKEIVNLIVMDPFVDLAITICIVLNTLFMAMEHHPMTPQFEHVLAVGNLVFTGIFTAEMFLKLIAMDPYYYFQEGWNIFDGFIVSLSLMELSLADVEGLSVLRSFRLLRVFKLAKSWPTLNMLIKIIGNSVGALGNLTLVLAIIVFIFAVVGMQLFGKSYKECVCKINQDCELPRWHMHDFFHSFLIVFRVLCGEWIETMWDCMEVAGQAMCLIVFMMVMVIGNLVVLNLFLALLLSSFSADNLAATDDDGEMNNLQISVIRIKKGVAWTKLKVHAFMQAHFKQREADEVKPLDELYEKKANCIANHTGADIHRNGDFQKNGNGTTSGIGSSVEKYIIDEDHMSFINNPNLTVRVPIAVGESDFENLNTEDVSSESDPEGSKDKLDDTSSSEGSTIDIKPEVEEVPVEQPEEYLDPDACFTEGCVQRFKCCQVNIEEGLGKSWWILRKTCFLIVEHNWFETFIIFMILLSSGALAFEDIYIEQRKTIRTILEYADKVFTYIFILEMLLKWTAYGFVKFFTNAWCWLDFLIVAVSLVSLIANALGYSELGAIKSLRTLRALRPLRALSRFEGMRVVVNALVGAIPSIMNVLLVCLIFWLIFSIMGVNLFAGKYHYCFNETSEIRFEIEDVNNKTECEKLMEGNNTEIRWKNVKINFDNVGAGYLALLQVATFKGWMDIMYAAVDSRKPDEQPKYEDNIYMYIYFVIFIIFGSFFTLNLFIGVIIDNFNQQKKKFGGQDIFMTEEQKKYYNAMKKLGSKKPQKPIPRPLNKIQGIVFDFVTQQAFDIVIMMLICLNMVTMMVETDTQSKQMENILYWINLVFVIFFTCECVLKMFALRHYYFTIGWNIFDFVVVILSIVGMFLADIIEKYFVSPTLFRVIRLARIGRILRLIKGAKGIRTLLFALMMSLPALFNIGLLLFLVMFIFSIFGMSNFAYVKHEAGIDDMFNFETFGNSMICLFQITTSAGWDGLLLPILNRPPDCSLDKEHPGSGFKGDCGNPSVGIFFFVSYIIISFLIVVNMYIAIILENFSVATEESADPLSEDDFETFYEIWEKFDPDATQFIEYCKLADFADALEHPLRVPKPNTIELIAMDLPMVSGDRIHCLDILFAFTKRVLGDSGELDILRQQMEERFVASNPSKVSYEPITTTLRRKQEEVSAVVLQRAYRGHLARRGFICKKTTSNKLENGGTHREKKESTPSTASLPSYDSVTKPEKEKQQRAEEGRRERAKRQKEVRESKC
T3 sequence (Q15858 whole entry): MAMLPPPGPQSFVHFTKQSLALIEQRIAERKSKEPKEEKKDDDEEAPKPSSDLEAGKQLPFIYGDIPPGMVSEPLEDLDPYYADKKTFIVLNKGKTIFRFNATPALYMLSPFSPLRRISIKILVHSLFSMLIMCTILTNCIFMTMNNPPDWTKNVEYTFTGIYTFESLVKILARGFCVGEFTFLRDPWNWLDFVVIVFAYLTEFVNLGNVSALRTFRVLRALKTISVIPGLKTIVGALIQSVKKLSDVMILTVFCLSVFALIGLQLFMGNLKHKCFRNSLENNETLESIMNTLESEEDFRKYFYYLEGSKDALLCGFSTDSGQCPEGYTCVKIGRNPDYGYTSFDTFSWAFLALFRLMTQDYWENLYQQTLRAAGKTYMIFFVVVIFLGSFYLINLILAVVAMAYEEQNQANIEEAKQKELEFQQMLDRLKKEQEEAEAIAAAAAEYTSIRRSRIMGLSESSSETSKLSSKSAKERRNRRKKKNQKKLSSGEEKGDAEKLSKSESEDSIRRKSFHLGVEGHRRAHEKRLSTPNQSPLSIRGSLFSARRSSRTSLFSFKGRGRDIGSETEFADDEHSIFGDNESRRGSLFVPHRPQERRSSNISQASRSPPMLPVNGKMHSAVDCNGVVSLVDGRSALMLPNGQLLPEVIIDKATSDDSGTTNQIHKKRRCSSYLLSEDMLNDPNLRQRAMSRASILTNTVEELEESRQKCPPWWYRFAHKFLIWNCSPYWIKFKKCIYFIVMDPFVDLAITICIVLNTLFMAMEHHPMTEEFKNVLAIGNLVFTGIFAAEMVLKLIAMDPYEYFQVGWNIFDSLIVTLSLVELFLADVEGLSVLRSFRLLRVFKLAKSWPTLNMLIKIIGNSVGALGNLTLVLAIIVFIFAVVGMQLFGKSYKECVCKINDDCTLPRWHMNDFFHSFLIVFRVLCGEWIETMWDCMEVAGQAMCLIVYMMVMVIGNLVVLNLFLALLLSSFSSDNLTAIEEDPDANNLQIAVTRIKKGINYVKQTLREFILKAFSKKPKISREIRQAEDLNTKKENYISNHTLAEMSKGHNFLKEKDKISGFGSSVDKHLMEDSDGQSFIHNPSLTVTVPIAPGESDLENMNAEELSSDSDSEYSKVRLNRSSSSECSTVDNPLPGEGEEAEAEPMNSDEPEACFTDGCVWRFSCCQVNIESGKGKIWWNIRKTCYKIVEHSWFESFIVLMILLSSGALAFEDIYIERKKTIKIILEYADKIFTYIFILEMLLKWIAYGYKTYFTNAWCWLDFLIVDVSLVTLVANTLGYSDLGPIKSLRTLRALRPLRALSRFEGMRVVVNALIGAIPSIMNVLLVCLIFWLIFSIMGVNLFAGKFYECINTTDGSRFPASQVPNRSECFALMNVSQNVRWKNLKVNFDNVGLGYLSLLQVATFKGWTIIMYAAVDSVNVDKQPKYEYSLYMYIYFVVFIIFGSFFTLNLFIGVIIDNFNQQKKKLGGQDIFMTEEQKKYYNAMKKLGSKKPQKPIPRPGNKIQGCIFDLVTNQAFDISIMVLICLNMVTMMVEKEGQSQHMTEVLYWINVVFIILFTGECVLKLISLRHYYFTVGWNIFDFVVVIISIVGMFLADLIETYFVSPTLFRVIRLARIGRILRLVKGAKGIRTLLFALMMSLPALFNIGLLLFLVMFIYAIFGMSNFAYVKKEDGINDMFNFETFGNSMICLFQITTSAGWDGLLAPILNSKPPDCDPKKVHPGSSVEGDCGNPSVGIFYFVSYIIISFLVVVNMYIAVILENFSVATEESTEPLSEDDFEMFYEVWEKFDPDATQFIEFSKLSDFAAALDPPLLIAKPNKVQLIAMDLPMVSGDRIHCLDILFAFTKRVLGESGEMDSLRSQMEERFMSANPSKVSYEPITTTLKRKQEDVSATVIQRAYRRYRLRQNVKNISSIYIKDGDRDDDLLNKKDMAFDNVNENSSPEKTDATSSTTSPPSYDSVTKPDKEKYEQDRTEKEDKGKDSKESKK

Consider `CCCCCc1cc(O)c(C/C=C(\C)CCC=C(C)C)c(O)c1C(=O)O` [CBGA, cannabigerolic acid], for which the “Slope (Hill slope coefficient)” value in test [1] (NaV1.2 concentration-response) came out at 2.2 ± 0.4; in test [2] (NaV1.1 concentration-response) it was 2.6 ± 0.5; in test [3] (NaV1.7 concentration-response), 2.5 ± 0.4; in test [4] (NaV1.6 concentration-response), 2.3 ± 0.6. Also, the 50% inhibitory concentration (IC50) (in general, the concentration that inhibits the measured activity by half) in test [1] (NaV1.2 peak current, 0.1–100 µM, 5 min exposure) was determined as 14.7 ± 1.1 µM; in test [2] (NaV1.1 peak current, 0.1–100 µM, 5 min exposure) it was 13.6 ± 1.1 µM; in test [3] (NaV1.7 peak current, 0.1–100 µM, 5 min exposure), 16.4 ± 1.1 µM; in test [4] (NaV1.6 peak current, 0.1–100 µM, 5 min exposure), 12 ± 1.2 µM. Further, the “Inactivation △ V0.5 inact” value in test [5] (SSFI) is listed as 1.0 ± 1.29 mV; in test [6] (SSFI) it was −5.5 ± 2.1* mV; in test [7] (SSFI) it was −0.5 ± 2.4 mV. In addition, the “Activation △ Slope factor” value in test [5] is on record as 3.1 ± 1.7; in test [6], 1.1 ± 0.2***; in test [7], −0.4 ± 0.3. In addition, the “Activation △ V0.5 act” value in test [5] is 3.9 ± 1.2** mV; in test [6] it was 4.6 ± 1.7* mV; in test [7], 0.1 ± 1.6 mV. For the same compound, the “Inactivation △ τinact SSFI at 5 mV” value in test [5] was 0.4 ± 0.1*; in test [6], 0.3 ± 0.06***; in test [7] it was 0.2 ± 0.2. Also, the figures for the “Inactivation △ slope factor” value in test [6] (SSFI) and in test [7] (SSFI) were 1.3 ± 0.5* and 1.1 ± 0.2**, respectively. Further, the “Effect in 6-Hz acute seizure model” value in the test on 6-Hz acute seizure model was “proconvulsive effects”.
